Values after ≈ are worked out from the molar mass of the structure shown. Like-named read-outs stand apart in the source and are kept apart here.
Columns and labels:
FtuFabI = FtuFabI (Francisella tularensis subsp. tularensis, UniProt Q5NGQ3); assay: biochemical; design: species or system F. tularensis subsp. tularensis Schu4; settings: for Ki: read-out: Ki^2 (Calculated using the Cheng-Prusoff Equation)
FabI = FabI (Francisella tularensis subsp. tularensis, UniProt Q5NGQ3); assay: biochemical; design: species or system F. tularensis subsp. tularensis Schu4; settings: read-out: Ki^1 (Experimental Ki)
FabI, sequence (Q5NGQ3 1-260 limits assumed): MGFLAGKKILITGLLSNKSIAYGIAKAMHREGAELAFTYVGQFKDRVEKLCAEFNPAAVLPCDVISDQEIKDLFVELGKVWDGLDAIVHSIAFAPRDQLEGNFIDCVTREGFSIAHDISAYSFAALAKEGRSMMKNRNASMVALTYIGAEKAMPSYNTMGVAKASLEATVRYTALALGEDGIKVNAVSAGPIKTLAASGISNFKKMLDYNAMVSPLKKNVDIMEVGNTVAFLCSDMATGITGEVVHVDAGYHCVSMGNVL

[1] = tested on: F. tularensis, strain Utah 112; assay: microbe, parasite or virus in culture; format: cell-based; settings: Francisella tularensis, UTAH112
[2] = tested on: B. anthracis, ΔANR strain; assay: microbe, parasite or virus in culture; format: cell-based; settings: Bacillus anthracis
[3] = tested on: S. aureus (ATCC number 29213); assay: microbe, parasite or virus in culture; format: cell-based
MRSA (ATCC number 43300) = assay: microbe, parasite or virus in culture; format: cell-based, methicillin-resistant Staphylococcus aureus; settings: Staphylococcus aureus
[4] = tested on: E. coli (BW251113 strain); assay: microbe, parasite or virus in culture; format: cell-based; settings: Escherichia coli
[5] = tested on: E. coli TolC-, an efflux defective mutant; assay: microbe, parasite or virus in culture; format: cell-based; settings: Escherichia coli
S. aureus membrane = assay: Membrane depolarization as a function of time; format: cell-based
S. aureus = assay: Cell viability as a function of time (measured with depolarization); format: cell-based
[6] = read-out: IC50, Inhibition of FabI

FtuFabI, sequence (Q5NGQ3 1-260 limits assumed): as above

| SMILES | IC50 (FtuFabI; read-out: IC50) | IC50 (FtuFabI; [6]) | Ki (FtuFabI) | Ki (FabI) | MBC [1] | MIC [1] | MBC [2] | MIC [2] | MIC [3] | MBC ([3]; Staphylococcus aureus) | MIC ([3]; Staphylococcus aureus) | MIC (MRSA (ATCC number 43300)) | MIC [4] | MBC [5] | MIC [5] | Depolarization (done at 2X MIC) (S. aureus membrane) | Cell viability (done at 2X MIC) (S. aureus) | MBC (MRSA (ATCC number 43300)) |
| --- | --- | --- | --- | --- | --- | --- | --- | --- | --- | --- | --- | --- | --- | --- | --- | --- | --- | --- |
| COc1ccc(Cn2cnc3cc4c(cc32)CCCC4)cc1C [Compound 9, 1-(4-methoxy-3-methylbenzyl)-5,6,7,8-tetrahydro-1H-naphtho[2,3-d]imidazole] | 140 nM | 140 nM | 110 nM | 130 ± 10 nM | 6.3 µg/mL (≈ 20.6 µM) | 3.1 µg/mL (≈ 10.1 µM) | 6.3 µg/mL (≈ 20.6 µM) | 6.3 µg/mL (≈ 20.6 µM) | 6.3 µg/mL (≈ 20.6 µM) | 25 µg/mL (≈ 81.6 µM) | 6.3 µg/mL (≈ 20.6 µM) | 12.5 µg/mL (≈ 40.8 µM) | > 12.5 µg/mL | 9.4 µg/mL (≈ 30.7 µM) | 4.7 µg/mL (≈ 15.3 µM) | Initially depolarizing (in first 60 min) but cells ‘recover’ and regain polarization compared to control with no compound | Clearly bacteriostatic | – |
| c1cc2c(cc1Cn1cnc3cc4c(cc31)CCCC4)OCO2 [Compound 14, 1-(benzo[d][1,3]dioxol-5-ylmethyl)-5,6,7,8-tetrahydro-1H-naphtho[2,3-d]imidazole] | 320 nM | 320 nM | 260 nM | 330 ± 40 nM | 18.8 µg/mL (≈ 61.4 µM) | 4.7 µg/mL (≈ 15.3 µM) | – | > 12.5 µg/mL | 4.7 µg/mL (≈ 15.3 µM) | > 25 µg/mL | 4.7 µg/mL (≈ 15.3 µM) | 6.3 µg/mL (≈ 20.6 µM) | > 12.5 µg/mL | 25 µg/mL (≈ 81.6 µM) | 9.4 µg/mL (≈ 30.7 µM) | Clearly no depolarization seen | Clearly bacteriostatic | > 25 µg/mL |

Reference: patent US20150246888A1, “ENOYL REDUCTASE INHIBITORS WITH ANTIBACTERIAL ACTIVITY” (priority 2012, published 2015)
